Experiment [1] concerns Human epidermal keratinocyte cells (HaCaT). Briefly: MTT assay, cell viability of HaCaT cells. The following applies: after 48 h and 72 h of cultivation, versus control without DMG, FIG. 1. Type of experiment: cell-based. The method, then: (§1) 1. As part of an in vitro study, the effect of Na-dimethylglycinate was examined in a pH range from […] in a cell culture model with human horn-forming keratinocyte cells. For this purpose, HaCaT cells were cultured for 1, 3, 5, and 7 days in DMEM medium (including fetal calf serum and an antibiotic-antimycotic mix) and, among other things, the viability, proliferation and migration of the cells were determined using suitable measurement methods, and the expression of the growth factors relevant for cell growth was measured.
For this measurement, a so-called MTT assay was used to determine cellular metabolic activity as an indicator of cell viability and cytotoxicity. This colorimetric assay is based on the reduction of a yellow tetrazolium salt (3-(4,5-dimethylthiazol-2-yl)-2,5-diphenyltetrazolium bromide or MTT) to purple formazan crystals by metabolically active cells.
Human epidermal keratinocyte cells (HaCaT) were seeded in a 96-well plate at a cell density of 5,000 cells/well and cultured in medium (DMEM with 10% FBS, 1% penicillin-streptomycin, 0.5% fungizone). […]
Cell viability was determined using the MTT assay. The absorption was measured in quadruplicate and normalized to the control at 24 hours. […]

Experiment [2] has the same test system. Briefly: CyQUANT assay, proliferation of HaCaT cells. Type of experiment: cell-based. The following applies: after 48 h and 72 h of cultivation, versus control without DMG, FIG. 2. How it is done: as §1
A so-called CyQUANT assay was carried out to measure the proliferation. In this fluorescence-based assay, the fluorescent dye used binds to DNA (deoxyribonucleic acid), with the content of cellular DNA being a direct measure of the number of cells in a sample.
Human epidermal keratinocyte cells (HaCaT) were seeded in a 96-well plate at a cell density of 5,000 cells/well and cultured in medium (DMEM with 10% FBS, 1% penicillin-streptomycin, 0.5% fungizone). The next day and after a further 24 h as well as 48 h and 72 h of cultivation at 37° C. and 5% by volume CO2, the cell culture medium without (control) or with the active ingredient concentrations already present was changed. […]
Cell proliferation was determined using the CyQUANT assay. The fluorescence was measured in triplicate and normalized to the control at 24 hours. […]

Experiment [3] has as its system HaCaT cells. Briefly: Wound healing assay, cell migration. Type of experiment: cell-based, human. To be noted: images after 16 h, 20 h and 24 h, different DMG concentrations, compared to controls without DMG; FIG. 3. The method, then:
as §1
A so-called wound healing assay was carried out to measure migration, based on previously published studies in T. Kawabata, T. Otsuka, K. Fujita, G. Sakai, R. Matsushima-Nishiwaki, O. Kozawa, H. Tokuda, International Journal of Molecular Medicine 2018, 42, 3149-3156. The principle is based on measuring the migration of cells to a cultivation surface that has not yet been colonized over time. […]
The wound was created at time 0 h and images were taken after 16 h, 20 h and 24 h of cultivation. Based on the image recordings, the cultivation surface, which was not yet colonized with cells, was determined using the ImageJ software. The measured values are normalized to the point in time 0 h (maximum size of the wound) and given in %.

Experiment [4] relates to VEGF. Briefly: Gene expression of VEGF by qRT-PCR in HaCaT cells. To be noted: after 24 hours of cultivation, normalized to GAPDH, versus control without DMG, FIG. 4. It is filed as cell-based, human. How it is done: VEGF (Vascular Endothelial Growth Factor) promotes the growth and formation of new blood and lymphatic vessels. Gene expression was measured using a standard method known as quantitative real-time PCR (qRT-PCR).
Human epidermal keratinocyte cells (HaCaT) were seeded in a 6-well plate at a cell density of 140,000 cells/well and cultured in medium (DMEM with 10% FBS, 1% penicillin-streptomycin, 0.5% fungizone) at 37° C. and 5% by volume CO2. The next day, the cell culture medium without (control) or with the active substance concentrations already present in each case was changed, and the cells were harvested after 24 h. Gene expression was measured using qRT-PCR based on studies previously published in B. V. Diaz, M.-C. Lenoir, A. Ladoux, C. Frelin, M. Demarchez, S. Michel, Journal of Biological Chemistry 2000, 275, 642-650.
The relative gene expression determined by qRT-PCR (triple determination, normalized to the respective gene expression of a constitutively expressed gene; GAPDH—glyceraldehyde-3-phosphate dehydrogenase) of VEGF is shown. Shown is the mean value with standard deviation.

“Also recorded” adds a separate entry of the source.

Consider `CN(C)CC(=O)[O-].[Na+]` [DMG, sodium dimethylglycinate], for which the “cell viability (MTT assay, absorption normalized to the control at 24 hours)” value in experiment [1] is “clear increase”. In experiment [2], the “cell proliferation (CyQUANT assay, fluorescence normalized to the control at 24 hours)” value is “clear increase”. In addition, the “migration or wound closure” value in experiment [3] is recorded as “significantly faster”. Moreover, the “relative gene expression of VEGF” value in experiment [4] is “significant increase; also recorded: significantly increased”.

The record behind these values is patent US20240130942A1, “Composition for Treating Hair and Skin” (DR. KURT WOLFF GMBH & CO. KG, priority 2020, published 2024).
